Experimental data from EP4733306A1, “NOVEL MODIFIED TRINUCLEOTIDE CAPPING DERIVATIVE, AND MRNA INTO WHICH CAPPING DERIVATIVE IS INTRODUCED” (Elonova Co., Ltd., priority 2023, dated 2025).
“Also recorded” adds a separate entry of the source.

Experiments:
HEK 293 cells = test: Luciferase (antigen protein) expression from capped Luciferase mRNA transfected into HEK 293 cells, luminescence readout; format: cell-based
Experimental: HEK 293 cells were cultured in a 60 mL culture plate containing DMEM supplemented with 10% FBS and 1% pen/strep. On the day prior to transfection, the cells were detached using trypsin and resuspended in new medium. The cells were seeded into a 96-well plate. On the next day, when the cells reached 70% confluence, the transfection mixture was prepared and transfection was performed.
The purified mRNA was quantified using a nanodrop spectrophotometer, and the transcription yield for each rNTP combination was compared. For cell transfection, 500 ng of each mRNA was collected and mixed with 5 µL of Opti-MEM. Separately, 0.5 µL of Lipofectamine was mixed with 5 µL of Opti-MEM in another tube and incubated at room temperature for 10 minutes. Then, the mRNA and Lipofectamine mixtures were combined in the same tube and incubated for an additional 5 minutes at room temperature. Finally, the transfection mixture was added to the cells and incubated for 24 hours.
After the incubation period, the medium was removed, and the cells were lysed using 50 µL of 1X lysis buffer. The cell lysate was transferred into microcentrifuge tubes. For luciferase luminescence analysis, 100 µL of luciferin substrate was added to each sample in a 96-well white plate. Then, 20 µL of each cell lysate sample was added and mixed by pipetting. Finally, the luminescence of luciferase was recorded using a luminometer instrument.
HEK 293 cells were cultured in a 60 mL culture plate containing DMEM supplemented with 10% FBS and 1% pen/strep. On the day prior to transfection, the cells were detached using trypsin and resuspended in fresh medium. The cells were then seeded in a 96-well plate. On the following day, when the cells reached 70% confluence, the transfection mixture was prepared and transfection was performed.
After the incubation period, the medium was removed, and the cells were lysed using 50 µL of 1X lysis buffer. The cell lysate was transferred into microcentrifuge tubes. For luciferase luminescence analysis, 100 µL of luciferin substrate was taken for each sample in a 96-well white plate. Then, 20 µL of each cell lysate sample was added and mixed by pipetting. Finally, the luminescence of luciferase was recorded using a luminometer instrument.

T7 RNA polymerase = T7 RNA polymerase (Escherichia phage T7, UniProt P00573); test: In vitro transcription of Luciferase template with T7 RNA polymerase in the presence of the capping material (gel); format: biochemical; settings: compared with CleanCap (cap 1 commercial)
Experimental: The concentration of the luciferase template was measured using a nanodrop spectrophotometer. For each transcription reaction, 100 ng of template in 1 µL was placed into a microcentrifuge tube. Then, 1.5 µL of 10X transcription buffer (400 mM Tris-HCl, 60 mM MgCl2, 10 mM DTT, 20 mM spermidine) and 1.5 µL of 100 mM DTT were added to the tube. rATP, rCTP, and rUTP were each used (1 µL, 10 mM). For cap-dependent transcription of luciferase, rGTP was used (1 µL, 2.5 mM). The ratio of capping material was maintained at four times higher than rGTP so as to provide mRNA capped at ≥80%. Accordingly, 1 µL of capping material (10 mM) was added. RNase inhibitor (0.5 µL, 40 U/µL) and T7 RNA polymerase (1 µL, 50 U/µL) were added. Nuclease-free water (4.5-5.5 µL) was added to bring the final volume of the reaction to 15 µL. In the case of modified rNTPs, 10 mM stock solutions were prepared and the corresponding derivatives were added in place of rCTP and rUTP. The reaction was incubated at 37°C for 1 hour, and after 1 hour, 1.8 µL of 10X DNase I buffer (10 mM Tris-HCl, 2.5 mM MgCl2, 0.5 mM CaCl2) and 1 µL of DNase I (2 U/µL) were added to the reaction and incubated for an additional 15 minutes at 37°C to remove all DNA templates.

[1] = Luciferase mRNA capped with the analog, compared with mRNA introduced with ARCA cap (cap 0) and CleanCap (cap 1 commercial), HEK 293
[2] = Luciferase mRNA capped with the analog, compared with Luciferase mRNA introduced with CleanCap (Luc mRNA Cap1)

Chain of T7 RNA polymerase (P00573 whole entry): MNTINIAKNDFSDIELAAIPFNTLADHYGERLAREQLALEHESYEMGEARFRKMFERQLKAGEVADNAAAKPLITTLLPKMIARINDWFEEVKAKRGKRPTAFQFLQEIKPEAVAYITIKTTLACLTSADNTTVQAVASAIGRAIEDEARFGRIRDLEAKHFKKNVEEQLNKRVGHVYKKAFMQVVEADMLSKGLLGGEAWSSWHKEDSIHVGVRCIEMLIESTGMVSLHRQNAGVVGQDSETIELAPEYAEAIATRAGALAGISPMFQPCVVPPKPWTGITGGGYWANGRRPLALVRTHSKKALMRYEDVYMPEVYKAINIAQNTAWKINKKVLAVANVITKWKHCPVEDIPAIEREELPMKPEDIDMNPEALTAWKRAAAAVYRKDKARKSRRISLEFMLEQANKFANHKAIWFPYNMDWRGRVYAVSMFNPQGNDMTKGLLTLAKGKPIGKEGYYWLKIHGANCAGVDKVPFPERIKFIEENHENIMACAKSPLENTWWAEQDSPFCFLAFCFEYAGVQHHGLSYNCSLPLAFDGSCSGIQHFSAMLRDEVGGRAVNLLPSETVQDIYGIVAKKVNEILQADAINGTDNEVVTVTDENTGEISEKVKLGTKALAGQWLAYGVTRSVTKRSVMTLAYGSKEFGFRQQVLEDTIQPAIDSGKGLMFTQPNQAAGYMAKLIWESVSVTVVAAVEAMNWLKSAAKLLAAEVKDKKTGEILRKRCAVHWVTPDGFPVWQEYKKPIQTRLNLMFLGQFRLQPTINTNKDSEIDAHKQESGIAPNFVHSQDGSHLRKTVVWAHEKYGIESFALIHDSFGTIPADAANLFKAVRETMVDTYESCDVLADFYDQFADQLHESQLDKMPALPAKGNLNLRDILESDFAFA

| Compound | antigen protein expression efficiency (HEK 293 cells; [1]) | also measured |
| --- | --- | --- |
| CO[C@@H]1[C@H](OP(=O)(O)OC[C@H]2O[C@@H](n3cnc4c(=O)[nH]c(N)nc43)[C@H](O)[C@@H]2O)[C@@H](COP(=O)(O)OP(O)(=S)OP(=O)(O)OC[C@H]2O[C@@H](n3c[n+](Cc4ccc(Cl)cc4)c4c(=O)[nH]c(N)nc43)[C@H](O)[C@@H]2O)O[C@H]1n1cnc2c(N)ncnc21 (single isomer, unassigned) [^4-ClBn7GppspAmpG (D1), Guanosine N7-4-Cl-benzyl β-phosphorothioate trinucleotide Cap1] | higher |  |
| CO[C@@H]1[C@H](OP(=O)(O)OC[C@H]2O[C@@H](n3cnc4c(=O)[nH]c(N)nc43)[C@H](O)[C@@H]2O)[C@@H](COP(=O)(O)OP(=O)(S)OP(=O)(O)OC[C@H]2O[C@@H](n3c[n+](Cc4ccc(Cl)cc4)c4c([O-])nc(N)nc43)[C@H](O)[C@@H]2O)O[C@H]1n1cnc2c(N)ncnc21 (single isomer, unassigned) [^4-ClBn7GppspAmpG (D2), Guanosine N7-4-Cl-benzyl β-phosphorothioate trinucleotide Cap1] | higher |  |
| CO[C@@H]1[C@H](OP(=O)(O)OC[C@H]2O[C@@H](n3cnc4c(=O)[nH]c(N)nc43)[C@H](O)[C@@H]2O)[C@@H](COP(=O)(O)OP(O)(=S)OP(=O)(O)OC[C@H]2O[C@@H](n3c[n+](Cc4ccccc4)c4c(=O)[nH]c(N)nc43)[C@H](O)[C@@H]2O)O[C@H]1n1cnc2c(N)ncnc21 (single isomer, unassigned) [^Bn7GppspAmpG (D1), Guanosine N7-benzyl β-phosphorothioate trinucleotide Cap1] | higher |  |
| CO[C@@H]1[C@H](OP(=O)(O)OC[C@H]2O[C@@H](n3cnc4c(=O)[nH]c(N)nc43)[C@H](O)[C@@H]2O)[C@@H](COP(=O)(O)OP(O)(=S)OP(=O)(O)OC[C@H]2O[C@@H](n3c[n+](Cc4ccccc4)c4c(=O)[nH]c(N)nc43)[C@H](O)[C@@H]2O)O[C@H]1n1cnc2c(N)ncnc21 (single isomer, unassigned) [^Bn7GppspAmpG (D2), Guanosine N7-benzyl β-phosphorothioate trinucleotide Cap1] | higher |  |
| CO[C@@H]1[C@H](OP(=O)(O)OC[C@H]2O[C@@H](n3cnc4c(=O)[nH]c(N)nc43)[C@H](O)[C@@H]2O)[C@@H](COP(=O)(O)OP(=O)(O)OP(=O)(O)OC[C@H]2O[C@@H](n3c[n+](Cc4ccccc4)c4c(=O)[nH]c(N)nc43)[C@H](O)[C@@H]2O)O[C@H]1n1cnc2c(N)ncnc21 [BzCap1, Guanosine N7-benzyl trinucleotide Cap1] | higher | antigen protein expression efficiency (HEK 293 cells; [2]): higher; antigen protein expression efficiency (HEK 293 cells; mRNA using natural rNTPs, compared with CleanCap, HEK 293): more efficient |
| CO[C@@H]1[C@H](OP(=O)(O)OC[C@H]2O[C@@H](n3cnc4c(=O)[nH]c(N)nc43)[C@H](O)[C@@H]2O)[C@@H](COP(=O)(O)OP(=O)(O)OP(=O)(O)OC[C@H]2O[C@@H](n3c[n+](Cc4ccccn4)c4c(=O)[nH]c(N)nc43)[C@H](O)[C@@H]2O)O[C@H]1n1cnc2c(N)ncnc21 [PyCap1, Guanosine N7-(pyridin-2-ylmethyl) trinucleotide Cap1 analog] |  | antigen protein expression efficiency (HEK 293 cells; [2]): higher; antigen protein expression efficiency (HEK 293 cells; compared with CleanCap mRNA (Luc mRNA CAP1), in both mRNA using natural rNTPs and mRNA with pseudouridine triphosphate instead of rUTP, HEK 293, 24 hours): higher; antigen protein expression efficiency (HEK 293 cells; compared with CleanCap mRNA (Luc mRNA CAP1), in both mRNA using natural rNTPs and mRNA with pseudouridine triphosphate instead of rUTP, HEK 293, 24 hours, listed as PyCapl): more efficient |
| CO[C@@H]1[C@H](OP(=O)(O)OC[C@H]2O[C@@H](n3cnc4c(=O)[nH]c(N)nc43)[C@H](O)[C@@H]2O)[C@@H](COP(=O)(O)OP(=O)(O)OP(=O)(O)OC[C@H]2O[C@@H](n3c[n+](Cc4cccs4)c4c(=O)[nH]c(N)nc43)[C@H](O)[C@@H]2O)O[C@H]1n1cnc2c(N)ncnc21 [ThioCap1, Guanosine N7-(thiophen-2-ylmethyl) trinucleotide Cap1 analog] |  | antigen protein expression efficiency (HEK 293 cells; [2]): higher; antigen protein expression efficiency (HEK 293 cells; compared with CleanCap mRNA (Luc mRNA CAP1), in both mRNA using natural rNTPs and mRNA with pseudouridine triphosphate instead of rUTP, HEK 293, 24 hours, listed as ThioCapl): more efficient; also recorded: higher; transcription efficiency (T7 RNA polymerase): similar |
| CO[C@@H]1[C@H](OP(=O)(O)OC[C@H]2O[C@@H](n3cnc4c(=O)[nH]c(N)nc43)[C@H](O)[C@@H]2O)[C@@H](COP(=O)(O)OP(=O)(O)OC[C@H]2O[C@@H](n3c[n+](Cc4ccc(Cl)cc4)c4c(=O)[nH]c(N)nc43)[C@H](O)[C@@H]2O)O[C@H]1n1cnc2c(N)ncnc21 [^4-ClBn7GppAmpG, Guanosine N7-4-Cl-benzyl trinucleotide diphosphate Cap1] | higher |  |
| CO[C@@H]1[C@H](OP(=O)(O)OC[C@H]2O[C@@H](n3cnc4c(=O)[nH]c(N)nc43)[C@H](O)[C@@H]2O)[C@@H](COP(=O)(O)OP(=O)(O)OP(=O)(O)OC[C@H]2O[C@@H](n3c[n+](Cc4ccc(Cl)cc4)c4c(=O)[nH]c(N)nc43)[C@H](O)[C@@H]2O)O[C@H]1n1cnc2c(N)ncnc21 [^4-ClBn7GpppAmpG, Guanosine N7-4-Cl-benzyl trinucleotide Cap1] | higher |  |
| CO[C@@H]1[C@H](OP(=O)(O)OC[C@H]2O[C@@H](n3cnc4c(=O)[nH]c(N)nc43)[C@H](O)[C@@H]2O)[C@@H](COP(=O)(O)OP(=O)(O)OC[C@H]2O[C@@H](n3c[n+](Cc4ccccc4)c4c(=O)[nH]c(N)nc43)[C@H](O)[C@@H]2O)O[C@H]1n1cnc2c(N)ncnc21 [^Bn7GppAmpG, Guanosine N7-benzyl trinucleotide diphosphate Cap1] | higher |  |
| CO[C@@H]1[C@H](OP(=O)(O)OC[C@H]2O[C@@H](n3cnc4c(=O)[nH]c(N)nc43)[C@H](O)[C@@H]2O)[C@@H](COP(=O)(O)OP(=O)(O)OP(=O)(O)OC[C@H]2O[C@@H](n3c[n+](Cc4ccccc4)c4c(=O)[nH]c(N)nc43)[C@H](O)[C@@H]2O)O[C@H]1n1cnc2c(NCc3ccccc3)ncnc21 [^Bn7Gppp^Bn6AmpG, Guanosine N^7, adenosine N^6-dibenzyl trinucleotide Cap1] | higher |  |
| CO[C@@H]1[C@H](OP(=O)(O)OC[C@H]2O[C@@H](n3cnc4c(=O)[nH]c(N)nc43)[C@H](O)[C@@H]2O)[C@@H](COP(=O)(O)OP(=O)(O)OP(=O)(O)OC[C@H]2O[C@@H](n3c[n+](Cc4ccccc4)c4c(=O)[nH]cnc43)[C@H](O)[C@@H]2O)O[C@H]1n1cnc2c(N)ncnc21 [^Bn7IpppAmpG, Inosine N7-benzyl trinucleotide Cap1] | higher |  |
| L-Guanosine N7-benzyl trinucleotide Cap1 [^Bn7LGpppAmpG] | higher |  |
